# According to US11680082B2, “Conjugates of montelukast and peptides” (ENLITISA (SHANGHAI) PHARMACEUTICAL CO., LTD, priority 2018, dated 2023):
# Where a name gives a salt, the structure may show the parent alone. Non-standard residues stand in square brackets, D forms with d. Residues, ends and D or L forms follow the SMILES beside them. No end group written: not given here. *: point of attachment. X2 = CC(C)(O)c1ccccc1CC[C@@H](SCC1(CC(=O)*)CC1)c1cccc(/C=C/c2ccc3ccc(Cl)cc3n2)c1; Dopa = N[C@@H](Cc1ccc(O)c(O)c1)C(=O)O; Hyp = O=C(O)[C@@H]1C[C@@H](O)CN1
# How the values were obtained:
# [1] = system: xylene induced ear swelling; conditions: hydrogel 0.5 mg/g, 40 μL on right ear
# Experimental: Essentially the same protocol to that described in Example 5 above was carried out on 15 healthy male BALB/c mice, using Compounds J (see Example 40 above) as test compound. The mice were randomly divided into 3 groups as described in Table 20 below, with 5 mice in each group.
# All excipients were obtained from Sinopharm Chemical Reagent Co. Ltd. The gel was made up with water for injection.
# Dexamethasone acetate cream (DEX cream; 5 mg of dexamethasone in 10 g of cream; Fuyuan Pharmaceutical Co. Ltd., Anhui, China) was used as a positive control. 40 μL of the various treatments drugs were applied to the right ear of each group.
# [2] = molecular target: T1, CysLTR1 (Homo sapiens, UniProt Q9Y271); experiment: In vitro CysLTR1 FLIPR antagonist test; assay type: cell-based; conditions: CYSLTR1/HEK293 cell line, Fluo-4 calcium assay
# T1 construct: expressed in transfected cells; host or cells: HEK293
# T1 sequence (Q9Y271 1-337): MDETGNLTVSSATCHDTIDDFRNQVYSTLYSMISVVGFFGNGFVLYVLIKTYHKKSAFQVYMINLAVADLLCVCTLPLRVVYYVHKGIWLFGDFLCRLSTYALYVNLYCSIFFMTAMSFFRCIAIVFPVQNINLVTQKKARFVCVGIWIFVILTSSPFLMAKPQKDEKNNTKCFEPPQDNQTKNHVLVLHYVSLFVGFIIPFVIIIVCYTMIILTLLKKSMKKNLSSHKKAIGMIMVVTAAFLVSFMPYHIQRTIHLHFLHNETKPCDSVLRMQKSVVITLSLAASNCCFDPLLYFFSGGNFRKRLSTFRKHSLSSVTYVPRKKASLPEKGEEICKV
# Experimental: 10 different concentrations were tested in duplicate for each compound.
# A CYSLTR1/HEK293 cell line was used. The cells were prepared and 20 μL of the cell suspension were added to the 384-well plates (20K/well; poly-D-Lysine protein coating plate, Greiner #781946). The plate was placed at 37° C. in a 5% CO2 incubator overnight.
# A probenecid in FLIPR assay buffer was prepared from the relevant starter pack (Cat. no. F10471): A 250 mM stock solution of water-soluble probenecid was prepared by adding 1 mL of Fluo-4 Direct™ calcium assay buffer to 77 mg vials containing probenecid (Component B for Cat. nos. F10471). 10 mL of Fluo-4 Direct™ calcium assay buffer and 200 μL of the 250 mM probenecid stock solution was added to one bottle of Fluo-4 Direct™ calcium reagent (Component A). This 2× Fluo-4 Direct™ calcium reagent loading solution was sufficient for two microplates. The solution was vortexed allowed to sit for 5 minutes (protected from light), to ensure that the reagent was completely dissolved. The reagent was prepared fresh each day
# All of the compounds were dissolved and serially diluted in Fluo-4 Direct™ calcium assay buffer (without probenecid). […] Fluorescence was measured using the instrument settings appropriate for excitation at 494 nm and emission at 516 nm.
# The data were analysed using Prism (GraphPad Software, USA) and IC50s calculated for each compound.
# [3] = system: full thickness skin wound; experiment: Acute wound model I; assay type: in vivo, C57BL/6 mice; conditions: lower dose, Day 4
# Experimental: 6-8 weeks old male C57BL/6 mice were supplied by Changzhou Cvens Experimental Animal Co. Ltd. Prior to any experiments being conducted, mice were housed under standardized conditions (at a constant temperature or 22±2° C., with alternating 12 hour periods of light and darkness), and were fed on a standard mouse diet with water, for about a week.
# General anesthesia was induced using intraperitoneal 3% chloral hydrate (Sinopharm Chemical Reagent Co., Ltd.; 1 mL/10 g of body weight). The hair on the back was shaved by a baby hair shaver and depilated with cream. The skin area was wiped and sterilized with 75% alcohol twice.
# EMS skin biopsy punch (Electron Microscopy Sciences, P.O. Box 550, 1560 Industry Road, Hatfield, Pa. 19440) with an 18 mm diameter was used to make a round wound on the midline of the back. Full thickness skin was removed, and the depth reached the fascia. The wounds left open without suture.
# Different drugs were administrated topically at 50 μL/wound, once daily from Day 0 to Day 7. The model group was given same amount of normal saline.
# Compound B was obtained as a powder from GL Biochem, and was prepared as described in Example 2 above). Ala-Lys-Pro-Ser-Tyr-Hyp-Hyp-Thr-DOPA-Lys (Compound 2; SEQ ID No: 4) was obtained as a powder from GL Biochem, and was prepared essentially as described in Example 2 above, but without coupling montelukast at the end. […]
# [4] = system: ammonia induced cough; experiment: Antitussive experiment, ammonia induced cough method; assay type: in vivo, mice; conditions: 10 mg/kg intragastric
# Experimental: 60 mice were randomly divided into 5 groups according to their body weight: CMC-Na negative control group, dextromethorphan hydrobromide positive control group and high, medium and low doses (of Compound A, Example 1) groups. Each group contained 12 mice, 6 males and 6 females.
# The test drug was administered via atomization inhalation (0.15 mL/min) for 1 min, once daily for 5 days. The positive control drug was administered once daily by intragastric administration at 10 mg/kg for 5 days.
# The mice were placed in an inverted beaker 1, 2, and 4 hours after the last drug administration (either Compound A or the positive control drug). 1 mL of aqueous ammonia (25.0 to 28.0%) was placed on top of a boiling water bath and was evaporated into the beaker. The mice were stimulated by ammonia vapor for a predetermined time of 63.1, 50.1, 39.8, 31.6, 25.1, 20.0, 15.9 or 12.6 seconds. The difference in the logarithm of two adjacent stimulating times was set at 0.1, and being 1.8, 1.7, 1.6, 1.5, 1.4, 1.3, 1.2 and 1.1. The mice were then quickly moved to a bell jar. The number of coughs within 1 minute was detected with a stethoscope. Typical coughs occurring three or more times in one minute are called ‘cough’ and those occurring less than three times in one minute are ‘cough free’.
# The ammonia stimulation time for the next mouse was determined according to the principle of the sequential method, i.e. if the first mouse was ‘coughing’, the next mouse was stimulated for a shorter period of time. Conversely, if the first mouse was ‘coughless’, the next mouse was stimulated for a longer period of time.
# The EDT50 was defined as the ammonia stimulating time at which half mice developed a “cough” and calculated by the equation: EDT50=lg^−1c/n (c equals the […], r is the number of animals in each stimulating time group, x is the logarithm of stimulation time and n was the number of animals in each group).
# Where R1=(EDT50 in treatment group/EDT50 in control group)×100%, R>130% indicates an antitussive effect. R>150% indicates a strong antitussive effect.
# [5] = system: bleomycin-induced lung fibrosis; experiment: Idiopathic pulmonary fibrosis (IPF) model in rats (bleomycin); assay type: in vivo, SD rats; conditions: score, 28 days
# Experimental: 60 adult SD rats (30 male, 30 female) were purchased from Zhejiang Experimental Animal Center, China. Animals were housed at between 21 and 26° C. and at between 40 and 70% relative humidity with free access to food and water.
# The rats were anaesthetized and placed on an operating table in the supine position, to expose the trachea. Bleomycin (5 mg/kg, Bleomycin Hydrochloride for Injection, Haizheng Pfizer Pharmaceutical Co., Ltd.) and saline solution were injected into the trachea through the gap between the tracheal cartilage rings.
# The sham-operation group was given an equal volume of normal saline instead of bleomycin. The rats were lifted vertically immediately after administration and were rotated to allow bleomycin to evenly disperse. […]
# After 28 days of administration, rats were anesthetized by intraperitoneal injection of chloral hydrate and then sacrificed. […] The lung wet weight was weighed, and the lung coefficient was calculated (lung wet weight/rat weight×1000) and are shown in Table 18 below. […]
# The fixed lung tissue was embedded in paraffin and sequential 4 μm sections were stained with haematoxylin-eosin (HE) and modified Masson's trichrome. Fibrotic lung injury was assessed morphologically by semiquantitative parameters. All morphological changes were scored according to the severity of damages. […] No lesion was scored as 0. […]
# [6] = system: full thickness skin wound; experiment: Acute wound model II; assay type: in vivo, C57BL/6 mice; conditions: topical once daily Day 0 to Day 7
# Experimental: A similar experiment with essentially the same protocol to that described in Example 6 above was carried out on 6 to 8 week-old male C57BL/6 mice, EMS skin biopsy punch with a 12 mm diameter was used to make two round wounds on the midline of the back. The two circles were tangential to each other and the skin between the circles was cut along the upper and lower tangents. Scissors were used to trim the wound. The wound was an oval shape. […] The model group was given same amount of normal saline. [table]
compound,measurement,setting,value
Montelukast-Ala-Lys-Pro-Ser-Tyr-Hyp-Hyp-Thr-Tyr-Hyp-Lys [Compound J],edema caused by acute inflammation (ear swelling),[1],very good effect on eliminating the edema caused by acute inflammation
C=C(C)c1ccccc1CC[C@@H](SCC1(CC(=O)O)CC1)c1cccc(/C=C/c2ccc3ccc(Cl)cc3n2)c1 [montelukast styrene],IC50,[2]; Example 37,159 nM
Ala-Lys-Pro-Ser-Tyr-Hyp-Hyp-Thr-DOPA-Lys (AKPSY[Hyp][Hyp]T[Dopa]K; not fully specified; printed as Ala-Lys-Pro-Ser-Tyr-Hyp-Hyp-Thr-DOPA-Lys) [Compound 2],Hyp content in wound tissue,[3],show effects at early stage
"COc1ccc2c(c1)[C@]13CCCC[C@@H]1[C@H](C2)N(C)CC3 [positive, dextromethorphan hydrobromide]",EDT50/s,[4]; 1 h after administration,50.1 s
same,R1/%,[4]; 1 h after administration,241.7%
same,EDT50/s,[4]; 2 h after administration,44.7 s
same,R1/%,[4]; 2 h after administration,207.3%
same,EDT50/s,[4]; 4 h after administration,41.4 s
same,R1/%,[4]; 4 h after administration,184.8%
Cc1ccc(=O)n(-c2ccccc2)c1 [pirfenidone],Masson evaluation Mean,[5]; collagen deposition in pulmonary interstitium,2.50
same,HE evaluation Mean,[5]; sum of degree of fibrosis and inflammation,5.50
Montelukast Styrene-Ala-Lys-Pro-pSer-Tyr-Hyp-Hyp-Thr-Tyr-Lys [Compound C],unhealed wound rate,[6],comparable effects on promoting the wound healing
"C[C@H](NC(=O)CC1(CS[C@H](CCc2ccccc2C(C)(C)O)c2cccc(/C=C/c3ccc4ccc(Cl)cc4n3)c2)CC1)C(=O)N[C@@H](CCCCN)C(=O)N1CCC[C@H]1C(=O)N[C@@H](CO)C(=O)N[C@@H](Cc1ccc(O)cc1)C(=O)N1C[C@H](O)C[C@H]1C(=O)N[C@H](C(=O)N[C@@H](Cc1ccc(O)cc1)C(=O)N1C[C@H](O)C[C@H]1C(=O)N[C@@H](CCCCN)C(=O)O)[C@@H](C)O [Compound G, Montelukast-Ala-Lys-Pro-Ser-Tyr-Hyp-Thr-Tyr-Hyp-Lys] (X2-AKPSY[Hyp]TY[Hyp]K-OH)",IC50,[2]; repeat of Example 38,99.5 nM
